Experimental data taken from US10973228B2, “Eco-friendly non-aqueous antimicrobial composition comprising hinokitiol with 1,3-propanediol and/or sorbitan caprylate” (ISP INVESTMENTS INC., priority 2012, dated 2021).
Values after ≈ are worked out from the molar mass of the structure shown.

Assays:
Type in all cases: cell-based
[1] = test system: Trichoderma viride (DSM 63064); test: MIC study on agar, fungal strain; conditions: DSM63064, ppm of antimicrobial active (Hinokitiol), Malt extract-Agar (3%) pH 5.6, 2 to 3 weeks at 20 to 25° C.
Experimental: (§1) The individual concentrations of the test-product were weighed into sterile Erlenmeyer flasks and mixed with 100 ml of an appropriate growth media at a maximum temperature of about 40 to 50° C. Equal amounts of mixtures were poured into four Petri dishes. After cooling, the Petri dishes were inoculated with the respective standard strains. During the experiment, the Petri dishes were kept for 2 to 3 weeks at room temperature of about 20 to 25° C. in the dark. The following two different types of culture media were employed for the present studies: • i. Bacteria-Agar: merchantable Caso—Agar pH-Value: 7.3±0.2 • ii. Fungi/Yeast-Agar:merchantable Malt extract—Agar (3%) pH-Value: 5.6±0.2
(§2) After 2nd and 3rd weeks macroscopic evaluations were performed, the ratings are as follows:
(§3) The formulation under examination is considered to be efficient if the following conditions are duly fulfilled i.e. (i) after 2-3 weeks no growth of the tested culture is visible; (ii) with rising concentration of the tested formulation, the germ growth should macroscopically be reduced until it is not visible any more.

[2] = test system: Aspergillus brasiliensis (DSM 1988); test: MIC study on agar, fungal strain; conditions: DSM1988, ppm of antimicrobial active (Hinokitiol), Malt extract-Agar (3%) pH 5.6, 2 to 3 weeks at 20 to 25° C.
Experimental: as §1, §2, §3

[3] = test system: Escherichia coli (DSM 1576); test: MIC study on agar, bacterial strain; conditions: for reduction of MIC level of hinokitiol: against Escherichia coli
Experimental: as §1, §2, §3

[4] = test system: Pseudomonas aeruginosa (DSM 1128); test: MIC study on agar, bacterial strain; conditions: DSM1128, ppm of antimicrobial active (Hinokitiol), Caso-Agar pH 7.3, 2 to 3 weeks at 20 to 25° C.
Experimental: as §1, §2, §3

[5] = test system: Staphylococcus aureus (DSM 799); test: MIC study on agar, bacterial strain
Experimental: as §1, §2, §3

[6] = test system: Burkholderia cepacia (DSM 7288); test: MIC study on agar, bacterial strain; conditions: DSM7288, ppm of antimicrobial active (Hinokitiol), Caso-Agar pH 7.3, 2 to 3 weeks at 20 to 25° C.
Experimental: as §1, §2, §3

For `CC(C)c1cccc(O)c(=O)c1` [Hinokitiol, 2-Hydroxy-6-propan-2-ylcyclohepta-2,4,6-trien-1-one], the MIC [1] was 100 µg/mL (≈ 609 µM), the MIC [2] was 100 µg/mL (≈ 609 µM) and the MIC ([3]; DSM1576, Escherichia coli, ppm of antimicrobial active (Hinokitiol), Caso-Agar pH 7.3, 2 to 3 weeks at 20 to 25° C.) was 100 µg/mL (≈ 609 µM). The “reduction of MIC level of hinokitiol” value ([3]; in presence of 1,3-propanediol (Zemea)) was 50%, the “reduction of MIC level of hinokitiol” value ([3]; in presence of sorbitan caprylate (Velsan SC)) was 50% and the MIC [4] was 500 µg/mL (≈ 3040 µM). The MIC ([5]; DSM799, Staphylococcus aureus, ppm of antimicrobial active (Hinokitiol), Caso-Agar pH 7.3, 2 to 3 weeks at 20 to 25° C.) was 100 µg/mL (≈ 609 µM), the “reduction of MIC level of hinokitiol” value ([5]; in presence of 1,3-propanediol (Zemea), against Staphylococcus aureus) was 50% and the MIC [6] was 500 µg/mL (≈ 3040 µM).
